Data as given in ChEMBL document CHEMBL4673239, “Discovery of Tyrosine Kinase 2 (TYK2) Inhibitor (PF-06826647) for the Treatment of Autoimmune Diseases” (J Med Chem, 2020).
≈ marks a conversion by molar mass, not a printed value. Calls of active or inactive are those of the source. No cut-off for these calls is given here.

Assays:
[1] = Apparent permeability in MDCK-II cells; format: ADME, cell-based, Canis lupus familiaris; conditions: dog
[2] = Clearance in human liver microsomes assessed per mg protein; format: ADME, Microsome; conditions: read-out: CLH
[3] = Fraction unbound in human plasma; format: ADME, cell-free
[4] = Dissociation constant, basic pKa of compound; format: physicochemical
[5] = Thermodynamic solubility of the compound at pH 7.4 using crystalline form of sample; format: physicochemical; conditions: read-out: Therm_solubility
[6] = Clearance in Sprague-Dawley rat at 1 mg/kg, iv; format: ADME, organism-based; conditions: in vivo
[7] = Volume of distribution at steady state in Sprague-Dawley rat at 1 mg/kg, iv; format: ADME, organism-based; conditions: in vivo, read-out: Vdss
[8] = AUC infinity in Sprague-Dawley rat at 1 mg/kg, iv; format: ADME, organism-based; design: time infinity, route intravenous, dose 1 mg/kg; conditions: in vivo
[9] = Oral bioavailability in Sprague-Dawley rat at 3 mg/kg using crystalline form of sample; format: ADME, organism-based; conditions: in vivo
[10] = Oral bioavailability in Sprague-Dawley rat at 30 mg/kg using crystalline form of sample; format: ADME, organism-based; conditions: in vivo
[11] = Oral bioavailability in Sprague-Dawley rat at 3 mg/kg using SDD formulation; format: ADME, organism-based; conditions: in vivo
[12] = Oral bioavailability in Sprague-Dawley rat at 30 mg/kg using SDD formulation; format: ADME, organism-based; conditions: in vivo
[13] = Cmax in Sprague-Dawley rat at 3 mg/kg, po using SDD formulation; format: ADME, organism-based; design: route oral, dose 3 mg/kg; conditions: in vivo
[14] = Cmax in Sprague-Dawley rat at 30 mg/kg, po using SDD formulation; format: ADME, organism-based; design: route oral, dose 30 mg/kg; conditions: in vivo
[15] = AUC infinity in Sprague-Dawley rat at 3 mg/kg, po using SDD formulation; format: ADME, organism-based; design: time infinity, route oral, dose 3 mg/kg; conditions: in vivo
[16] = AUC infinity in Sprague-Dawley rat at 30 mg/kg, po using SDD formulation; format: ADME, organism-based; design: time infinity, route oral, dose 30 mg/kg; conditions: in vivo
[17] = Protein binding in rat plasma; format: ADME, cell-free; conditions: read-out: PPB (converted)
[18] = Protein binding in human plasma; format: ADME, cell-free
[19] = Renal excretion in rat; format: ADME, Kidney; conditions: urine, read-out: Drug excretion
[20] = Bile excretion in rat; format: ADME; conditions: read-out: Drug excretion
[21] = Unbound drug level in imiquimod-induced mouse model of skin inflammation at 1 mg/kg, po qd; format: ADME, organism-based; conditions: in vivo
[22] = Unbound drug level in imiquimod-induced mouse model of skin inflammation at 3 mg/kg, po qd; format: ADME, organism-based; conditions: in vivo
[23] = Unbound drug level in imiquimod-induced mouse model of skin inflammation at 10 mg/kg, po qd; format: ADME, organism-based; conditions: in vivo
[24] = Unbound drug level in imiquimod-induced mouse model of skin inflammation at 30 mg/kg, po qd; format: ADME, organism-based; conditions: in vivo
Mus musculus [25] = experiment: Antiinflammatory activity in imiquimod-induced mouse model of skin inflammation assessed as reduction in IL12 stimulation at 1 mg/kg, po qd; format: functional; design: scale not given: the % may be the effect or the level left
Mus musculus [26] = experiment: Antiinflammatory activity in imiquimod-induced mouse model of skin inflammation assessed as reduction in IL12 stimulation at 3 mg/kg, po qd; format: functional; design: scale not given: the % may be the effect or the level left
Mus musculus [27] = experiment: Antiinflammatory activity in imiquimod-induced mouse model of skin inflammation assessed as reduction in IL12 stimulation at 10 mg/kg, po qd; format: functional; design: scale not given: the % may be the effect or the level left
Mus musculus [28] = experiment: Antiinflammatory activity in imiquimod-induced mouse model of skin inflammation assessed as reduction in IL12 stimulation at 30 mg/kg, po qd; format: functional; design: scale not given: the % may be the effect or the level left
Mus musculus [29] = experiment: Antiinflammatory activity in imiquimod-induced mouse model of skin inflammation assessed as reduction in ear swelling at 1 mg/kg, po qd; format: functional, organism-based
Mus musculus [30] = experiment: Antiinflammatory activity in imiquimod-induced mouse model of skin inflammation assessed as reduction in ear swelling at 30 mg/kg, po qd relative to control; format: functional; design: scale not given: the % may be the effect or the level left
Mus musculus [31] = experiment: Antiinflammatory activity in imiquimod-induced mouse model of skin inflammation assessed as reduction in ear swelling at 10 mg/kg, po qd relative to control; format: functional; design: scale not given: the % may be the effect or the level left
Mus musculus [32] = experiment: Antiinflammatory activity in imiquimod-induced mouse model of skin inflammation assessed as reduction in ear swelling at 3 mg/kg, po qd relative to control; format: functional; design: scale not given: the % may be the effect or the level left
physchem = conditions: octanol/water phosphate buffer, pH 7.4
Description: Octanol/water phosphate buffer partition coefficient, log D of compound at pH 7.4 by shake-flask method

Papp [1]: 17 ×10⁻⁶ cm/s | microsomal CLint [2]: < 8 µL/min/mg | Fu [3]: 0.38 | pKa [4]: < 1.7 | solubility thermodynamic [5]: 0.8 µM (≈ 0.307 µg/mL) | clearance [6]: 12 mL/min/kg | Vd [7]: 1.1 L/kg | AUC(0-inf) [8]: 1380 ng·h/mL | bioavailability [9]: 15% | bioavailability [10]: 8% | bioavailability [11]: 58% | bioavailability [12]: 63% | Cmax [13]: 369 ng/mL | Cmax [14]: 2780 ng/mL | AUC(0-inf) [15]: 2390 ng·h/mL | AUC(0-inf) [16]: 25900 ng·h/mL | fraction unbound [17]: 0.82 | PPB [18]: 38% | dose excreted [19]: 1.3% | dose excreted [20]: 0.9% | Drug uptake(free) [21]: 14.5 nM | Drug uptake(free) [22]: 45.7 nM | Drug uptake(free) [23]: 225 nM | Drug uptake(free) [24]: 668 nM | logD (physchem): 1.7
Compound: Cn1cc(-c2cn3nccc3c(-c3cnn([C@]4(CC#N)C[C@@H](C#N)C4)c3)n2)cn1 [ROPSACITINIB]
Activity (Mus musculus [25]): 51% | Activity (Mus musculus [26]): 77% | Activity (Mus musculus [27]): 94% | Activity (Mus musculus [28]): 98% | Activity (Mus musculus [29]): inactive | Activity (Mus musculus [30]): 46.2% | Activity (Mus musculus [31]): 34% | Activity (Mus musculus [32]): 31.3%
